The test concerns the target T1, human Chk1 (GST-Chk1) (Homo sapiens, UniProt O14757).
T1 construct: made in house; host or cells: insect cells (baculovirus, Bac-to-Bac)
T1 sequence (O14757 1-476): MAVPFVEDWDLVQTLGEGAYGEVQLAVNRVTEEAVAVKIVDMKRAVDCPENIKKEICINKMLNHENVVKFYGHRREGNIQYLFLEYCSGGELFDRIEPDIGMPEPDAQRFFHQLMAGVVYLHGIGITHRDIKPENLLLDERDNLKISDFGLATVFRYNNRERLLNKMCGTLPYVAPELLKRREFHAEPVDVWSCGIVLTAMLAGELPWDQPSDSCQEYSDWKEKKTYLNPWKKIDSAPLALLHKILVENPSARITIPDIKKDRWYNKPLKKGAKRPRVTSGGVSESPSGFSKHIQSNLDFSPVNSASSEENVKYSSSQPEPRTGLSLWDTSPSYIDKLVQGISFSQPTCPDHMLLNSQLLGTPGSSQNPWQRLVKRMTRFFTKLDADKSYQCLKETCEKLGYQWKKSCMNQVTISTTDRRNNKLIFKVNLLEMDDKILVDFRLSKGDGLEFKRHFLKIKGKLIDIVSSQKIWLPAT
The experiment in a line: Chk1 FlashPlate kinase assay. It is filed as biochemical. As to conditions: 8.7 nM GST-Chk1, 1 uM ATP, 33P incorporation into peptide substrate. An outline of the steps:
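GST-tagged human Chk1 (8.7 nM), baculovirus-expressed, with 3 uM biotinylated peptide, 1 uM ATP plus ^33P-γ-ATP, in MES/EGTA pH 8.0, DTT, Tween 20, 4% DMSO; 30 min at room temperature. EDTA-stopped; phosphopeptide captured on streptavidin FlashPlates and ^33P counted by scintillation.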

For 15 compounds, IC50 results are on record in patent publication US20050245563A1 (Millennium Pharmaceuticals, Inc., priority 2003, published 2005).

For the compound `Cc1[nH]nc2c1c(=O)n(CCCNC(=O)CCCc1ccccc1)c1ccccc21` [Example 81, N-[3-(3-Methyl-4-oxo-2,4-dihydro-pyrazolo[4,3-c]quinolin-5-yl)-propyl]-4-phenyl-butyramide], the IC50 is less than 1000 nM. On to `Cc1[nH]nc2c1c(=O)n(CCCNC(=O)c1cccnc1)c1ccccc21` [Example 82, N-[3-(3-Methyl-4-oxo-2,4-dihydro-pyrazolo[4,3-c]quinolin-5-yl)-propyl]-nicotinamide], for which the IC50 is less than 1000 nM. `Cc1[nH]nc2c1c(=O)n(CCCNS(=O)(=O)c1ccccc1)c1ccccc21` [Example 83, N-[3-(3-Methyl-4-oxo-2,4-dihydro-pyrazolo[4,3-c]quinolin-5-yl)-propyl]-benzenesulfonamide] came in with an IC50 of less than 1000 nM.

`Cc1[nH]nc2c1c(=O)n(CCCNC(=O)c1ccccc1Cl)c1ccccc21` [Example 84, 2-Chloro-N-[3-(3-methyl-4-oxo-2,4-dihydro-pyrazolo[4,3-c]quinolin-5-yl)-propyl]-benzamide] registered a half-inhibitory concentration (IC50) of less than 1000 nM. For `Cc1[nH]nc2c1c(=O)n(CCCNC(=O)c1ccc(C(C)(C)C)cc1)c1ccccc21` [Example 85, 4-tert-Butyl-N-[3-(3-methyl-4-oxo-2,4-dihydro-pyrazolo[4,3-c]quinolin-5-yl)-propyl]-benzamide] the value was less than 1000 nM. For `CC(=O)NCCCn1c(=O)c2c(C)[nH]nc2c2ccccc21` [Example 86, N-[3-(3-Methyl-4-oxo-2,4-dihydro-pyrazolo[4,3-c]quinolin-5-yl)-propyl]-acetamide] the value was less than 1000 nM; for `Cc1n[nH]c2c1c(=O)n(CCNC(=O)Nc1ccccc1)c1ccccc21` [Example 87], 1000 to 20000 nM. Then `COc1ccc(Cl)cc1NC(=O)NCCn1c(=O)c2c(C)n[nH]c2c2ccccc21` [Example 89, 1-(5-Chloro-2-methoxy-phenyl)-3-[2-(3-methyl-4-oxo-1,4-dihydro-pyrazolo[4,3-c]quinolin-5-yl)-ethyl]-urea], with 1000 to 20000 nM.

Take `Cc1[nH]nc2c1c(=O)n(CCNC(=O)c1ccc(Cl)cc1)c1ccccc21` [Example 90, 4-Chloro-N-[2-(3-methyl-4-oxo-2,4-dihydro-pyrazolo[4,3-c]quinolin-5-yl)-ethyl]-benzamide]: the half-inhibitory concentration (IC50) was 1000 to 20000 nM. Turning to `COc1ccc(C(=O)NCCn2c(=O)c3c(C)[nH]nc3c3ccccc32)cc1` [Example 91, 4-Methoxy-N-[2-(3-methyl-4-oxo-2,4-dihydro-pyrazolo[4,3-c]quinolin-5-yl)-ethyl]-benzamide], the IC50 lay in the range of 1000 to 20000 nM. `Cc1[nH]nc2c1c(=O)n(CCNC(=O)CCc1ccccc1)c1ccccc21` [Example 92, N-[2-(3-Methyl-4-oxo-2,4-dihydro-pyrazolo[4,3-c]quinolin-5-yl)-ethyl]-3-phenyl-propionamide] had an IC50 of 1000 to 20000 nM. As to `Cc1[nH]nc2c1c(=O)n(CCNC(=O)C1CCCCC1)c1ccccc21` [Example 93, Cyclohexanecarboxylic acid [2-(3-methyl4-oxo-2,4-dihydro-pyrazolo[4,3-c]quinolin-5-yl)-ethyl]-amide], the IC50 is 1000 to 20000 nM. `Cc1[nH]nc2c1c(=O)n(CCNC(=O)C1CCCC1)c1ccccc21` [Example 94, Cyclopentanecarboxylic acid [2-(3-methyl-4-oxo-2,4-dihydro-pyrazolo[4,3-c]quinolin-5-yl)-ethyl]-amide] displayed an IC50 of 1000 to 20000 nM. For `Cc1[nH]nc2c1c(=O)n(CCCNC(=O)C(Cc1ccc(F)cc1)NC(=O)OC(C)(C)C)c1ccccc21` (stereo not drawn) [Example 95, {2-(4-Fluoro-phenyl)-1-[3-(3-methyl-4-oxo-2,4-dihydro-pyrazolo[4,3-c]quinolin-5-yl)-propylcarbamoyl]-ethyl}-carbamic acid tert-butyl ester] the value was 1000 to 20000 nM; for `Cc1[nH]nc2c1c(=O)n(CCCNC(=O)C(Cc1ccc(Cl)cc1)NC(=O)OC(C)(C)C)c1ccccc21` (stereo not drawn) [Example 96, {2-(4-Chloro-phenyl)-1-[3-(3-methyl-4-oxo-2,4-dihydro-pyrazolo[4,3-c]quinolin-5-yl)-propylcarbamoyl]-ethyl}-carbamic acid tert-butyl ester], more than 20000 nM.
